Patent US20230064983A1 (priority 2020, published 2023)
Values joined by “and” are separate entries in the source; they are usually repeats but may differ in a detail not shown here. Equal entries are not always repeated. Where two headings read alike, the source gives them in different places.

Columns and labels:
[1] = target: T1, EGFR with insertion SVD between D770 and N771 (mutEGFR D770_N771insSVD) (Homo sapiens, UniProt P00533, DUP768-770); test: Exon20-Mutant-EGFR(D770_N771insSVD) kinase assay (TR-FRET); format: biochemical; conditions: 2 mM ATP, Table 2
T1 construct: amino acids R669 to A1210; made in house; host or cells: Sf9 insect cells (baculovirus)

Bub1 = target: T2, Bub1 (Homo sapiens, UniProt O43683); test: Bub1 high ATP kinase assay (TR-FRET); format: biochemical; conditions: 2 mM ATP, Table 3
T2 construct: catalytic domain of human Bub1 (amino acids 704-1085); His6 (N); made in house; host or cells: insect cells (Hi5)
Excerpt: Bub1 high ATP Kinase Assay
Bub1-inhibitory activity of compounds of the present invention at a high ATP concentration was quantified employing the Bub1 TR-FRET high ATP kinase assay as described in the following paragraphs.
N-terminally His6-tagged recombinant catalytic domain of human Bub1 (amino acids 704-1085), expressed in insect cells (Hi5) and purified by Ni-NTA affinity chromatography and subsequent size exclusion chromatography, was used as enzyme. As substrate for the kinase reaction the biotinylated peptide biotin-Ahx-[…] (C-terminus in amid form) was used which can be purchased e.g. form the company Biosyntan (Berlin, Germany).
Then the kinase reaction was started by the addition of 2 μl of a solution of Bub1 in assay buffer and the resulting mixture was incubated for a reaction time of 60 min at 22° C. The concentration of Bub1 was adjusted depending of the activity of the enzyme lot and was chosen appropriate to have the assay in the linear range, a typical concentration is about 200 ng/ml. The reaction was stopped by the addition of 3 μl of a solution of TR-FRET detection reagents (0.167 μM streptavidine-XL665 [Cisbio Bioassays, Codolet, France] and 1.67 nM anti-phosho-Serine antibody [Merck Millipore, cat. #35-002] and 0.67 nM LANCE EU-W1024 labeled anti-mouse IgG antibody [Perkin-Elmer, product no. AD0077, as an alternative a Terbium-cryptate-labeled anti-mouse IgG antibody from Cisbio Bioassays can be used]) in an aqueous EDTA-solution (83.3 mM EDTA, 0.2% (w/v) bovine serum albumin in 100 mM HEPES pH 7.5).
The resulting mixture was incubated 1 h at 22° C. to allow the formation of complex between the phosphorylated biotinylated peptide and the detection reagents. Subsequently the amount of phosphorylated substrate was evaluated by measurement of the resonance energy transfer from the Eu-chelate to the streptavidine-XL. Therefore, the fluorescence emissions at 620 nm and 665 nm after excitation at 350 nm was measured in a TR-FRET reader, e.g. a Pherastar or Pherastar FS (both from BMG Labtechnologies, Offenburg, Germany) or a Viewlux (Perkin-Elmer). The ratio of the emissions at 665 nm and at 622 nm was taken as the measure for the amount of phosphorylated substrate.

[2] = target: Ba/F3-EGFR-D770_N771insSVD cells (Homo sapiens, UniProt P00533, DUP768-770, cells depend on it); test: Ba/F3 cell survival assay, EGFR D770_N771insSVD; format: cell-based; conditions: Cell Titer-Glo, 48 h, without IL-3; Table 4; read-out: BA/F3 (insSVD) IC50
Ba/F3-EGFR-WT cells = Ba/F3-EGFR-WT cells (Homo sapiens, UniProt P00533); test: Ba/F3 cell survival assay, wild type EGFR; format: cell-based; conditions: Cell Titer-Glo, 48 h, with 10 ng/mL EGF; Table 4; read-out: BA/F3 (wild type) IC50
[3] = Bub1 high ATP (2 mM) IC50, TR-FRET

Sequence of Ba/F3-EGFR-WT cells (P00533 whole entry, looked up, change not shown): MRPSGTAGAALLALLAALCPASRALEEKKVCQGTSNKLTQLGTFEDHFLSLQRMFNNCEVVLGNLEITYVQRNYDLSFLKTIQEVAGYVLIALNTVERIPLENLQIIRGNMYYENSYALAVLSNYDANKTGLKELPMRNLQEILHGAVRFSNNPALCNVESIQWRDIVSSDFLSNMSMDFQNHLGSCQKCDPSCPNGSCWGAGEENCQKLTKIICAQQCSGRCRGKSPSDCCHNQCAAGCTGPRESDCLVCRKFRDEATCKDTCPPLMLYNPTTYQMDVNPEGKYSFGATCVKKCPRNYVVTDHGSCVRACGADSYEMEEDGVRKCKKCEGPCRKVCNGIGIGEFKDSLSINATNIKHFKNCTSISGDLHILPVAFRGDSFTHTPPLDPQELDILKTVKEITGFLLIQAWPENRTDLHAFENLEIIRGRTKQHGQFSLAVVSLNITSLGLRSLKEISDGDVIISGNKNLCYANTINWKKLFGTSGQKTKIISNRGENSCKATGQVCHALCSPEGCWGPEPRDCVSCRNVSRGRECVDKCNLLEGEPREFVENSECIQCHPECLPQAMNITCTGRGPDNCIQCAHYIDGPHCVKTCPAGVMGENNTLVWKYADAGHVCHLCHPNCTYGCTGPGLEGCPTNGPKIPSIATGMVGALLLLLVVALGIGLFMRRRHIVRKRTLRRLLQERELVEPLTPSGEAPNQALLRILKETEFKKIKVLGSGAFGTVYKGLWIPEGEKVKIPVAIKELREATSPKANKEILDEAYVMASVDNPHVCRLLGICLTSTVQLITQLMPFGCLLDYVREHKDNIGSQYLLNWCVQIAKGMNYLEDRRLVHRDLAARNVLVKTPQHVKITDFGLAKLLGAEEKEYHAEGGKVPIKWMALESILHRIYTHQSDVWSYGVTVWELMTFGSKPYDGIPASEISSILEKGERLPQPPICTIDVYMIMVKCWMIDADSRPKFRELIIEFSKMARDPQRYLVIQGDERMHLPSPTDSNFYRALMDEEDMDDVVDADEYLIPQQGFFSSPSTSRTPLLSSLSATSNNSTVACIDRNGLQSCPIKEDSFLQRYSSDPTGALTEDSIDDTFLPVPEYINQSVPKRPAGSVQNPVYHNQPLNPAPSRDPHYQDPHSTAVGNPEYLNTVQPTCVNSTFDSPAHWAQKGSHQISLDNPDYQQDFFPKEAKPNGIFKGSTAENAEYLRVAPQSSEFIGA
Sequence of Ba/F3-EGFR-D770_N771insSVD cells (P00533 with tags, fused parts or gaps DUP768-770): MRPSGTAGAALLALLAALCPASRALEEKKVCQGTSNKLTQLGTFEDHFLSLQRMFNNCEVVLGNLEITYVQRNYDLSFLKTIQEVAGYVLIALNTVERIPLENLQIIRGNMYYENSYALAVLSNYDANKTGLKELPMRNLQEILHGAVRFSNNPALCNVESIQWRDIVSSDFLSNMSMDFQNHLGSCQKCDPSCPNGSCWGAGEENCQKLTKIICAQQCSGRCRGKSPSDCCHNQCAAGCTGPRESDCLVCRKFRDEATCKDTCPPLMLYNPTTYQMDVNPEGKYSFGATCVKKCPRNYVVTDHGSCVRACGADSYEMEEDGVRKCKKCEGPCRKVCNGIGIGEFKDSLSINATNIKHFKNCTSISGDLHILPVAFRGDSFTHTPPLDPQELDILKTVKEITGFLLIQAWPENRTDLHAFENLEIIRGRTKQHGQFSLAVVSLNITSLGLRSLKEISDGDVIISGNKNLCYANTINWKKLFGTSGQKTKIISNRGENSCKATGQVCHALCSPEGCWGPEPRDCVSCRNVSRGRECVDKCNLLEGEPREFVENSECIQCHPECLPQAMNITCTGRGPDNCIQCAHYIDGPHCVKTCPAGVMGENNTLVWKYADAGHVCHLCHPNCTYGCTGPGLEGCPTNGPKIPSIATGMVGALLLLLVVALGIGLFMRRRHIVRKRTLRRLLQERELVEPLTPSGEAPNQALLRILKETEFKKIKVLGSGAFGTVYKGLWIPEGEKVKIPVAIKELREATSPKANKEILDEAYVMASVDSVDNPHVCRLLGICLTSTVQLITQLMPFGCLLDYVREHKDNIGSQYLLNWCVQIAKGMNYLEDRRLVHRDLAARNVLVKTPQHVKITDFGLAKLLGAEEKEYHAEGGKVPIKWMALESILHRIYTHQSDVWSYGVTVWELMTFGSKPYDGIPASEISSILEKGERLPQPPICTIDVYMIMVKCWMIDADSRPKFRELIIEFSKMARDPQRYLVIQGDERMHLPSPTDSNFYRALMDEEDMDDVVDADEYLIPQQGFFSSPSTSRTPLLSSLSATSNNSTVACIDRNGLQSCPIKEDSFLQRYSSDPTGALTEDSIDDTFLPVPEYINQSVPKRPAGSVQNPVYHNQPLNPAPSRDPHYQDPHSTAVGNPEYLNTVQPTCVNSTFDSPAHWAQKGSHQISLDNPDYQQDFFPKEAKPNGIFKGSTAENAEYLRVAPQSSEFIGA
T2 sequence (O43683 704-1085): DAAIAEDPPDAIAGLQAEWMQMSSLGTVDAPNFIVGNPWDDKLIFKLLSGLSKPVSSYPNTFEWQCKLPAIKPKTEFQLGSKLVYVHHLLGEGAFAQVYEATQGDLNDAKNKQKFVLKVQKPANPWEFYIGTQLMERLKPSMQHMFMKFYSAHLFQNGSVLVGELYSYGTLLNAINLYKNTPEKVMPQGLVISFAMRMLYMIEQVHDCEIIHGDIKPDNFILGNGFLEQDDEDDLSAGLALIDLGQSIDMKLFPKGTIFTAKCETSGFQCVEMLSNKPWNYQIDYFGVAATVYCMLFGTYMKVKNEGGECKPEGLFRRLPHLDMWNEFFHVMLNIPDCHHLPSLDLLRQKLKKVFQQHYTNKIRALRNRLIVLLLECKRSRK
T1 sequence (P00533 other isoform, or with tags, fused parts or gaps DUP768-770): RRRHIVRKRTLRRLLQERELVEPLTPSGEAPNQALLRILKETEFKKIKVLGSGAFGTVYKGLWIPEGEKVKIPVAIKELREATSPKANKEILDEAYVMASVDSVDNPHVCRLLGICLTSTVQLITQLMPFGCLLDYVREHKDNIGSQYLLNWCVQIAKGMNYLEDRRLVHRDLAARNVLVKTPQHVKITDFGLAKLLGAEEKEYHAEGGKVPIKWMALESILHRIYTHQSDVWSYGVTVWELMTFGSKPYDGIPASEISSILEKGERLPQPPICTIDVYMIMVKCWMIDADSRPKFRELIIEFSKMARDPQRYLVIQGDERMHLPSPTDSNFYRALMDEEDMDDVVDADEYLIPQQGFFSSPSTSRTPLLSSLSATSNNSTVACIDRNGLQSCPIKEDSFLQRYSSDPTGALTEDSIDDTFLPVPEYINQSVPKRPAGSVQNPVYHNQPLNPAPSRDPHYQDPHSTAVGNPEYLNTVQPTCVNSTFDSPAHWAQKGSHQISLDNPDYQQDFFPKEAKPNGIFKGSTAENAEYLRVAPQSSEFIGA

Row | Compound | mutEGFR (D770_N771insSVD) kinase assay IC50 [1] | IC50 (Bub1; [3]) | GI50 [2] [nM] | GI50 (Ba/F3-EGFR-WT cells) [nM] | IC50 (Bub1; read-out: Bub1 high ATP (2 mM) IC50, TR-FRET) [nM]
1 | COc1c(Cl)cccc1Nc1c(-c2ccncc2OCC2COC(C)(C)CO2)[nH]c2c1C(=O)NC1(CC1)C2 (centres unmarked) [Example 132, 3′-(3-chloro-2-methoxyanilino)-2′-{3-[(5,5-dimethyl-1,4-dioxan-2-yl)methoxy]pyridin-4-yl}-1′,7′-dihydrospiro[cyclopropane-1,6′-pyrrolo[3,2-c]pyridin]-4′(5′H)-one] | 0.394 nM | 1480 nM | 44.9 | 986 | 
2 | Cc1c(Cl)cccc1Nc1c(-c2ccncc2OCC2COCCO2)[nH]c2c1C(=O)NCC2C (single isomer, unassigned) [Example 68, 3-(3-chloro-2-methyl-anilino)-2-[3-(1,4-dioxan-2-ylmethoxy)-4-pyridyl]-7-methyl-1,5,6,7-tetrahydropyrrolo[3,2-c]pyridin-4-one] | 0.3 nM | 5130 nM | 63.7 | 1380 | 
3 | COc1c(Cl)cccc1Nc1c(-c2ccncc2OCC2CCCCO2)[nH]c2c1C(=O)N[C@H](C)C2 (single isomer, unassigned) [Example 28] | 0.139 nM | 9720 nM | 8.33 | 189 | 
4 | COc1c(Cl)cccc1Nc1c(-c2ccncc2OC[C@@H]2CCCO2)[nH]c2c1C(=O)NC1CCCC21 (stereo in doubt) [Example 55, (5aR*,8aS*)-3-(3-chloro-2-methoxyanilino)-2-(3-{[(2S)-oxolan-2-yl]methoxy}-4-pyridyl)-5,5a,6,7,8,8a-hexahydrocyclopenta[b]pyrrolo[2,3-d]pyridin-4(1H)-one] | 0.239 nM | 758 nM | 75.1 | 978 | 
5 | COc1c(Cl)cccc1Nc1c(-c2ccncc2OCCC(C)OC)[nH]c2c1C(=O)N[C@H](C)C2 (single isomer, unassigned) [Example 122] | 0.122 nM | 741 nM | 23.8 | 506 | 
6 | COc1c(Cl)cccc1Nc1c(-c2ccncc2OC[C@@H]2CCCO2)[nH]c2c1C(=O)NCC2CCO (single isomer, unassigned) [Example 18] | 0.113 nM | 19200 nM and > 20000 nM | 26.4 | 362 | 
7 | COc1c(Cl)cccc1Nc1c(-c2ccncc2OCC2COC(C)(C)CO2)[nH]c2c1C(=O)NCC2C (single isomer, unassigned) [Example 95, 3-(3-chloro-2-methoxy-anilino)-2-[3-[(5,5-dimethyl-1,4-dioxan-2-yl)methoxy]-4-pyridyl]-7-methyl-1,5,6,7-tetrahydropyrrolo[3,2-c]pyridin-4-one] | 0.504 nM |  | 14.9 | 415 | > 20000
8 | COc1c(Cl)cccc1Nc1c(-c2ccncc2OCCC2CCCCO2)[nH]c2c1C(=O)NC1(CCC1)C2 (centres unmarked) [Example 128, 3-(3-chloro-2-methoxy-anilino)-2-[3-(2-tetrahydropyran-2-ylethoxy)-4-pyridyl]spiro[5,7-dihydro-1H-pyrrolo[3,2-c]pyridine-6,1′-cyclobutane]-4-one] | 1.06 nM | 726 nM | 38.4 | 942 | 
9 | C[C@@H]1Cc2[nH]c(-c3ccncc3OCC3COCCO3)c(Nc3cccc(F)c3CC(F)F)c2C(=O)N1 (stereo partly drawn) [Example 108, (6R)-3-[2-(2,2-difluoroethyl)-3-fluoro-anilino]-2-[3-(1,4-dioxan-2-ylmethoxy)-4-pyridyl]-6-methyl-1,5,6,7-tetrahydropyrrolo[3,2-c]pyridin-4-one] | 0.213 nM | 6220 nM | 141 | 1400 | 
10 | COCC(C)Oc1cnccc1-c1[nH]c2c(c1Nc1cccc(Cl)c1OC)C(=O)N[C@@H]1CCC[C@H]21 (single isomer, unassigned) [Example 50] | 0.393 nM | > 20000 nM | 349 | 1650 | 
11 | COc1c(Cl)cccc1Nc1c(-c2ccncc2OC[C@@H]2CCO2)[nH]c2c1C(=O)N[C@@H](C)C2 [Example 7, (6S)-3-(3-chloro-2-methoxyanilino)-6-methyl-2-(3-{[(2S)-oxetan-2-yl]methoxy}pyridin-4-yl)-1,5,6,7-tetrahydro-4H-pyrrolo[3,2-c]pyridin-4-one] | 0.0854 nM and <0.0725 nM | > 20000 nM | 25.7 | 384 | 
12 | COc1c(Cl)cccc1Nc1c(-c2ccncc2OCC2COCCO2)[nH]c2c1C(=O)NCC2C (single isomer, unassigned) [Example 37, 3-(3-chloro-2-methoxy-anilino)-2-[3-(1,4-dioxan-2-ylmethoxy)-4-pyridyl]-7-methyl-1,5,6,7-tetrahydropyrrolo[3,2-c]pyridin-4-one] | 0.318 nM | 2870 nM | 149 | 1090 | 
13 | COc1c(Cl)cccc1Nc1c(-c2ccncc2OC[C@@H]2CCCO2)[nH]c2c1C(=O)NCC2CCO (mixture of isomers) [Example 16, 3-(3-chloro-2-methoxyanilino)-7-(2-hydroxyethyl)-2-(3-{[(2S)-oxolan-2-yl]methoxy}pyridin-4-yl)-1,5,6,7-tetrahydro-4H-pyrrolo[3,2-c]pyridin-4-one] | 0.413 nM | > 20000 nM | 63.8 | 644 | 
14 | COc1c(Cl)cccc1Nc1c(-c2ccncc2OC[C@@H]2CCCO2)[nH]c2c1C(=O)NC(C(F)(F)F)C2 (single isomer, unassigned) [Example 40] | 0.0981 nM and <0.0725 nM | 399 nM | 64.3 | 480 | 
15 | COc1c(Cl)cccc1Nc1c(-c2ccncc2OC[C@@H]2CCCO2)[nH]c2c1C(=O)NCC2CCC(F)(F)F (single isomer, unassigned) [Example 98] | 0.525 nM | 954 nM | 18.1 | 444 | 
16 | COc1c(Cl)cccc1Nc1c(-c2ccncc2OCC2COCCO2)[nH]c2c1C(=O)NCC2C (centres unmarked) [Example 33, 3-(3-chloro-2-methoxy-anilino)-2-[3-(1,4-dioxan-2-ylmethoxy)-4-pyridyl]-7-methyl-1,5,6,7-tetrahydropyrrolo[3,2-c]pyridin-4-one] | 0.201 nM | 5160 nM | 73.1 | 844 | 
17 | COCC(C)Oc1cnccc1-c1[nH]c2c(c1Nc1cccc(Cl)c1OC)C(=O)N[C@H](C)C2 (single isomer, unassigned) [Example 42] | 0.213 nM | 8810 nM | 15.3 | 531 | 
18 | COc1c(Cl)cccc1Nc1c(-c2ccncc2OC[C@@H]2COCCN2C)[nH]c2c1C(=O)NCC2CCO (single isomer, unassigned) [Example 115] | 0.456 nM | 13200 nM |  | 5420 | 
19 | COc1c(Cl)cccc1Nc1c(-c2ccncc2OC[C@@H]2CCCO2)[nH]c2c1C(=O)NCC2C (single isomer, unassigned) [Example 32] |  | 3640 nM | 52.7 | 737 | 
